In article PMC3807845 (The Journal of Physical Chemistry. B, 2013):
Values joined by “and” are separate entries in the source; they are usually repeats but may differ in a detail not shown here. Equal entries are not always repeated. Where two headings read alike, the source gives them in different places. Values belong to the molecule of their own block, whether it stands above or below them. Ends that are not written are not given here. * marks the point of attachment. FITC = O=C1OC2(c3ccc(O)cc3Oc3cc(O)ccc32)c2ccc(NC(=S)*)cc21

Assays:
[1] = Circular dichroism, secondary structure; type: physicochemical; conditions: CD
Method: Circular dichroism (CD) scans were performed with an Applied Photophysics Chirascan, in cuvettes of 1 or 0.2 mm path length. In mixing experiments, individual solutions of FITC-cMyb and KIX in pH 7.4 100 mM sodium phosphate (0.05% tween-20) were prepared, and aliquots removed for mixing in a 1:1 ratio. Spectra were obtained for all three solutions and buffer subtracted. The expected spectrum in the absence of protein interaction was calculated as the average of the two spectra for the individual protein solutions. Helical content for FITC-cMyb alone was variously estimated as 28, 30, and 37% using the methods of Perez-Iratxeta et al.,[19] Morriset et al.,[20] and Chen et al.,[21] respectively.

KIX domain of mouse CBP [2] = biological target: T1, KIX domain of mouse CBP (Mus musculus, UniProt P45481); assay: Stopped-flow anisotropy kinetics, ionic strength dependence (MOPS); type: binding
T1 construct: KIX domain of mouse CBP (Uniprot 45481, residues 586–672); hexahistidine tag with thrombin cleavage site (N, cleaved yes); made in house; host or cells: Escherichia coli C41 (DE3)
T1 sequence (P45481 586-672): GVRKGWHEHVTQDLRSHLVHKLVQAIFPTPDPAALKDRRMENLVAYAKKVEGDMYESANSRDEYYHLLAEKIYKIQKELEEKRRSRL
Method: Two separate buffer types were utilized in these studies. First, 100 mM sodium phosphate buffer, pH 7.4, the pH of which is relatively insensitive to temperature changes, was used for the temperature studies. Second, 20 mM MOPS (pH 7.30 ± 0.02 at 10 °C) with a range of sodium chloride concentrations was used in ionic strength studies. MOPS buffers in the same range as phosphate but has a lower ionic strength because of its lower valency, enabling a larger range of ionic strengths to be investigated. We observed that the rate of association was slightly lower in phosphate buffer, considering our estimates of its ionic strength. In addition, 0.05% tween-20 was included in all biophysical buffers to avoid nonspecific interactions with plastic-ware.
In preparing solutions for kinetic assays, dilutions of KIX and FITC-cMyb stocks were weighed, so that accurate concentrations (accounting for solution density) were obtained.
Association kinetics were monitored by following the change in anisotropy of FITC-cMyb on binding using a SX20 stopped-flow spectrometer (Applied Photophysics) with an FP1 fluorescence polarization accessory. […] Anisotropy values reported from stopped-flow have not been corrected for background fluorescence. […]
The variation in association rate constant with ionic strength (I) was modeled with a Debye–Huckel-like approximation that has been determined empirically (eq 4).[24] […]

KIX domain of mouse CBP [3] = biological target: T1, KIX domain of mouse CBP; assay: Stopped-flow anisotropy kinetics, temperature dependence; type: binding
Method: The synthetic gene for the KIX domain of mouse CBP (Uniprot 45481, residues 586–672) was obtained from Genscript. The gene was inserted into a modified version of the pRSET A vector that encodes an N-terminal hexahistidine tag with a thrombin cleavage site between the tag and the protein. Protein expression was carried out in Escherichia coli C41 (DE3) grown in 2xTY media at 37 °C. Expression was induced once the cells reached an optical density of 0.4–0.6 AU at 600 nm, by adding IPTG to a final concentration of 0.1 mM and reducing the temperature to 18 °C. The cells were grown overnight and harvested by centrifugation. […] Bound protein was eluted with 250 mM imidazole, and the his-tag cleaved by overnight incubation with thrombin at room temperature. The protein was further purified by gel filtration using a Superdex G75 column in pH 7.4 100 mM sodium phosphate buffer. For ionic strength studies, KIX protein was buffer exchanged and stored in ddH2O. The concentration of KIX stocks was determined using an extinction coefficient of 12 009 M^–1 cm^–1 at 280 nm obtained by the method of Gill von Hippel.[18]
N-terminally labeled FITC-cMyb peptide (Uniprot P06876, residues 291–315) was purchased from Biomatik. 1 mg aliquots were dissolved at 1–2 mg/mL in ddH2O as required. The stock concentration was determined from the absorbance at 493 nm of a 20-fold dilution into biophysical buffer, using an extinction coefficient of 75 000 M^–1 cm^–1. Sodium phosphate, MOPS, and sodium chloride were purchased from Sigma. […]
Association kinetics were monitored by following the change in anisotropy of FITC-cMyb on binding using a SX20 stopped-flow spectrometer (Applied Photophysics) with an FP1 fluorescence polarization accessory. […] Anisotropy values reported from stopped-flow have not been corrected for background fluorescence.
In temperature studies, KIX solutions of various concentrations were mixed 1:1 with 1 μM FITC-cMyb. […] Dissociation rate constants (koff) were calculated from the relation koff = Kdkon, which is appropriate for two-state bimolecular reactions (see Results). […]

CBP KIX (Mus musculus) = CBP KIX (Mus musculus) (UniProt P45481); conditions: cited from earlier work
Chain of CBP KIX (Mus musculus) (P45481 583-668): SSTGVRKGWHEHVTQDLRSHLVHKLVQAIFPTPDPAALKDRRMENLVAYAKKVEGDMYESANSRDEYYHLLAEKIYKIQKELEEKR

KIX [4] = conditions: NMR structure of the complex; cited from earlier work
Excerpt: We confirmed this increase in helicity on binding by comparing CD measurements of the individual components and mixtures ...

KIX [5] = conditions: pH 7, 27 °C; read-out: dissociation constant of unlabeled cMyb by ITC; cited from earlier work
Excerpt: Second, the peptide was still observed to bind to KIX protein. On mixing FITC-cMyb with KIX, a reliable increase in the an ...

[6] = test system: pseudo-wild-type of KIX with a single point tryptophan mutation in the binding site (and an attached his-tag); conditions: cited from earlier work
Excerpt: Association kinetics for this complex have recently been reported by Gianni et al., for a pseudo-wild-type of KIX with a single point tryptophan mutation in the binding site (and an attached his-tag).[46] […] After correction for the expected number of molecule collisions, the rate is still temperature dependent (Figure 3), which indicates the presence of an activation barrier that slows the association process. We stop short of interpreting the gradient of this plot (10.9 ± 0.7 kcal/mol) as the enthalpic barrier for folding. First, from CD denaturation studies (Figure S4, Supporting Information), it is clear that even over this narrow range of temperature there are conformatio ...

[7] = cited from earlier work
Method: The charge on KIX and cMyb at pH 7.4 was estimated using average pKa values reported for amino acids in globular proteins and model peptides.[54] The charge for FITC-cMyb was corrected to account for N-terminal addition of FITC. At pH 7.3–7.4 and 25 °C, fluoroscein exists predominantly as a dianion (∼90%), with some anion (∼10%), the equilibrium between the two species being described by a protolytic constant of 6.43.[27]

[8] = biological target: KIX domain of mouse CBP (residues 586-672) (mouse, UniProt P45481 586-672); assay: fluorescence polarisation; equilibrium anisotropy; 1 uM FITC-cMyb incubated 1 h with varying concentrations of KIX; 100 mM sodium phosphate pH 7.4, 0.05% tween-20; 25 °C; fit to eq 2; conditions: both partners purified
Chain of KIX domain of mouse CBP (residues 586-672) (P45481 586-672): as the sequence (P45481 586-672) above

barnase = conditions: with barnase, cited from earlier work
Excerpt: Although these rates are fast, they are nothing remarkable in themselves. […] The most famous example of such rate enhancement is for the two folded proteins barnase and barstar, which have been described as “ultrafast” associating proteins. At low ionic strengths, the reported kon is over 5 × 10^9 M^–1 s^–1; however, extrapolation to infinite ionic strength to obtain an esti ...

Molecule: KIX: KIX domain of mouse CBP (Uniprot 45481, residues 586–672)
reversibility of thermal denaturation / aggregation ([1]; 10 to 80 °C, indicative of aggregation at higher temperatures): Apparent nonreversibility
secondary structure over ionic strength range ([1]; MOPS buffers, 10 to 750 mM ionic strength, 10 °C): no significant change in the secondary structure
effect of temperature on helical content ([1]; thermal denaturation, pH 7.4 100 mM sodium phosphate, 10 to 80 °C): Helical content was reduced on increasing temperature

kon (KIX domain of mouse CBP [2]; 25 °C, from 10 °C basal rate and temperature dependence study, read-out: basal association rate constant estimated at 25 °C): 2.1e+07 M⁻¹ s⁻¹
kon (KIX domain of mouse CBP [2]; pH 7.3, 10 °C, 20 mM MOPS pH 7.30, extrapolated with Debye–Huckel-like approximation (eq 4), read-out: basal association rate constant (infinite ionic strength)): 7.7e+06 M⁻¹ s⁻¹
koff (KIX domain of mouse CBP [3]; 25 °C, extrapolated from temperature dependence, pH 7.4 100 mM sodium phosphate, read-out: koff extrapolated to 25 °C): 230 ± 20 s⁻¹
kon (KIX domain of mouse CBP [3]; pH 7.4, read-out: kon extrapolated to 25 °C): ~2.2e+07 M⁻¹ s⁻¹
koff (KIX domain of mouse CBP [3]; physiological conditions, expected, read-out: dissociation rate under physiological conditions): > 300 s⁻¹
Molecule: CC[C@H](C)[C@H](NC(=O)[C@H](CCCNC(=N)N)NC(=O)[C@H](CCCCN)NC(=O)[C@H](CCC(=O)O)NC(=O)[C@H](CCCCN)NC(=S)Nc1ccc2c(c1)C(=O)OC21c2ccc(O)cc2Oc2cc(O)ccc21)C(=O)N[C@@H](CCCCN)C(=O)N[C@@H](CCC(=O)O)C(=O)N[C@@H](CC(C)C)C(=O)N[C@@H](CCC(=O)O)C(=O)N[C@@H](CC(C)C)C(=O)N[C@@H](CC(C)C)C(=O)N[C@@H](CC(C)C)C(=O)N[C@@H](CCSC)C(=O)N[C@@H](CO)C(=O)N[C@H](C(=O)N[C@@H](CCC(=O)O)C(=O)N[C@@H](CC(N)=O)C(=O)N[C@@H](CCC(=O)O)C(=O)N[C@@H](CC(C)C)C(=O)N[C@@H](CCCCN)C(=O)NCC(=O)N[C@@H](CCC(N)=O)C(=O)N[C@@H](CCC(N)=O)C(=O)N[C@@H](C)C(=O)N[C@@H](CC(C)C)C(=O)O)[C@@H](C)O [FITC-cMyb]

Molecule: cMyb transactivation domain (from UniProt P06876)
Kd (CBP KIX (Mus musculus)): 10 µM and 12.5 µM

Molecule: cMyb: 25 amino acid peptide from the TAD of cMyb, unlabeled
residual α-helical content, unbound state (summary) ([1]; free peptide, pH 7.4 100 mM sodium phosphate): around 30%
amino acids in a helix in the bound form (KIX [4]): 70%
Kd (KIX [5]): 10 µM
fold lower binding affinity than reported here ([6]; 25 °C, relatively similar buffer conditions, complex with pseudo-wild-type KIX): 3 fold
decrease of dissociation rate on partial helix stabilization by TFE ([6]; TFE): around 5 fold
increase of association rate on partial helix stabilization by TFE ([6]; TFE): around 1.4 fold
kon, Gianni et al. ([6]; compared at 25 °C, pseudo-wild-type his-tagged KIX): (2.5 ± 0.1) × 10^7 M^–1 s^–1

Molecule: O=C1OC2(c3ccc(O)cc3Oc3cc(O)ccc32)c2ccccc21 [fluoroscein]
protolytic constant (dianion/anion) ([7]; 25 °C): 6.43
fraction as anion ([7]; pH 7.3–7.4, 25 °C): ~10%
fraction as dianion ([7]; pH 7.3–7.4, 25 °C): ~90%

Kd [8]: 10.5 ± 0.7 µM
Molecule: {FITC}-KEKRIKELELLLMSTENELKGQQAL (peptide, UniProt P06876 291-315, looked up)

B1: barstar: two folded proteins barnase and barstar, described as ultrafast associating proteins (protein, UniProt P11540 2-90, looked up)
Barstar: KKAVINGEQIRSISDLHQTLKKELALPEYYGENLDALWDCLTGWVEYPLVLEWRQFEQSKQLTENGAESVLQVFREAKAEGCDITIILS
basal kon, infinite ionic strength (barnase; extrapolated to infinite ionic strength): around 10^5 M^–1 s^–1
kon at low ionic strength (barnase; low ionic strengths): over 5 × 10^9 M^–1 s^–1
